Among the data in patent publication US7666875B2, “Hydantoin compounds” (Eisai R&D Management Co., Ltd., priority 2005, dated 2010) are IC50 values, retold here.

As a reminder, the IC50 is the concentration that inhibits the measured activity by half.

The structures appear in SMILES notation.

The test concerns the target T1, human T-bet (Homo sapiens, UniProt Q9UL17).
T1 construct: expressed in transfected cells; host or cells: engineered HEK cells (HEKT-bet)
T1 sequence (Q9UL17 1-535): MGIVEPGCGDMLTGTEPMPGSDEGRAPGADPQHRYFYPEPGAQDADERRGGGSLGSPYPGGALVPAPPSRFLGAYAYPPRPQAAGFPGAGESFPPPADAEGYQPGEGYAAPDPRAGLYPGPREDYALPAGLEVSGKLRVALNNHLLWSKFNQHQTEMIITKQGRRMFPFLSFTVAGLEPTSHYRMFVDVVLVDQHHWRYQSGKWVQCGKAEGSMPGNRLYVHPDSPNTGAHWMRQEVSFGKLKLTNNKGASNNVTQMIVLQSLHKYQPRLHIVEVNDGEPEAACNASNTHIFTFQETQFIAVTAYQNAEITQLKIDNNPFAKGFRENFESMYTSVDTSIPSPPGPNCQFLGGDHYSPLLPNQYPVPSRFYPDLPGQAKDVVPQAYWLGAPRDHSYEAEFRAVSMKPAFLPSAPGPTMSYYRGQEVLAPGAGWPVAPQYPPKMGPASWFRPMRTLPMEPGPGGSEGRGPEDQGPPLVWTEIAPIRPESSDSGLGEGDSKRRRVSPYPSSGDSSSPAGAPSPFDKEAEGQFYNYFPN
Kind of test: HEKT-bet-luc assay (T-bet dependent luciferase reporter in engineered HEK cells). It is filed as cell-based. The following applies: Table 4; HEKT-bet cells, compound 24 hours; IC50 normalized to reference ER-213038; read-out: IC50. Summed up:
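HEK cells expressing human T-bet and a T-box element–luciferase reporter were treated with compound for 24 h, then luciferase was read by luminescence. IC50 was scaled between uninhibited signal and maximal inhibition, then normalized to a same-plate reference compound multiplied by its established potency.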
In general terms: In a reporter assay the amount or activity of a reporter protein is the signal.

As to `COCCN1C(=O)N(Cc2cccc(OC)c2)C(=O)C12CCN(Cc1ccc(OC)c(OC)c1C)CC2` [Example 219], the IC50 was 362 nM. For the compound `COCCN1C(=O)N(CCCOc2ccccc2)C(=O)C12CCN(Cc1cccc(OC)c1)CC2` [Example 220], the IC50 is 362 nM. As to `CCN1C(=O)N(CCCc2ccccc2)C(=O)C12CCN(Cc1cc(OC)cc(OC)c1)CC2` [Example 221], the IC50 worked out at 365 nM. Then `COCCN1C(=O)N(CCCc2ccccc2OC)C(=O)C12CCN(Cc1ccccc1)CC2` [Example 222], with 366 nM. Then `O=C1N(C/C=C/c2ccccc2)C(=O)C2(CCN(Cc3cccc4ccccc34)CC2)N1Cc1ccncc1` [Example 223], with 371 nM; and `COCCN1C(=O)N(Cc2cccc(OC)c2)C(=O)C12CCN(Cc1cccc(-c3ccc(S(C)(=O)=O)cc3)c1)CC2` [Example 224], with 371 nM. As for `COCCN1C(=O)N(Cc2cccc(OC)c2)C(=O)C12CCN(Cc1cccc(N3CCCCC3)c1)CC2` [Example 225], the IC50 is 373 nM.

Turning to `COCCN1C(=O)N(C/C=C/c2ccccc2C)C(=O)C12CCN(Cc1ccccc1)CC2` [Example 226], the IC50 turned out to be 373 nM. With `COCCN1C(=O)N(Cc2cccc(OC)c2)C(=O)C12CCN(Cc1cc3ccccc3nc1Cl)CC2` [Example 227], the IC50 is 373 nM. Consider `COCCN1C(=O)N(Cc2cccc(OC)c2)C(=O)C12CCN(Cc1ccc(C)cc1C)CC2` [Example 228], for which the IC50 amounted to 374 nM. For `COc1cccc(CN2C(=O)N(Cc3cccc(-n4cccc4)c3)C3(CCN(Cc4cccc5ccccc45)CC3)C2=O)c1` [Example 229], the IC50 worked out at 377 nM.

For the compound `COCCN1C(=O)N(Cc2cccc(OC)c2)C(=O)C12CCN(Cc1cccc(N3CCOCC3)c1)CC2` [Example 230], the IC50 came out at 379 nM. On to `COc1cccc(CN2C(=O)N(Cc3ccc4c(c3)nnn4C)C3(CCN(Cc4cccc5ccccc45)CC3)C2=O)c1` [Example 231], for which the IC50 is 385 nM. The figure for `COCCN1C(=O)N(CCCOc2ccccc2)C(=O)C12CCN(Cc1ccc3ccccc3c1)CC2` [Example 232] is 385 nM; for `COCCN1C(=O)N(Cc2cccc(OC)c2)C(=O)C12CCN(Cc1cccc(C)c1)CC2` [Example 233] it is 386 nM. Turning to `COCCN1C(=O)N(Cc2cccc(OC)c2)C(=O)C12CCN(Cc1ccccc1)CC2` [Example 234], the IC50 was 387 nM. The figure for `COCCN1C(=O)N(Cc2cccc(OC)c2)C(=O)C12CCN(Cc1cccc(Cl)c1)CC2` [Example 235] is 390 nM; for `COCCN1C(=O)N(Cc2ccc(OC(F)(F)F)cc2)C(=O)C12CCN(Cc1ccccc1)CC2` [Example 236] it is 395 nM. The figure for `COCCN1C(=O)N(Cc2cc(OC)cc(OC)c2)C(=O)C12CCN(Cc1cccc(OC)c1)CC2` [Example 237] is 414 nM; for `COCCN1C(=O)N(Cc2cccc(OC)c2)C(=O)C12CCN(Cc1cccc(-c3ccc(NC(C)=O)cc3)c1)CC2` [Example 238] it is 414 nM; for `COCCN1C(=O)N(Cc2cccc(OC)c2)C(=O)C12CCN(Cc1cccc(OC)c1)CC2` [Example 239] it is 417 nM. On to `O=C1N(C/C=C/c2ccccc2)C(=O)C2(CCN(Cc3cccc4ccccc34)CC2)N1Cc1ccccn1` [Example 240], for which the IC50 was 420 nM.

`COc1cccc(CN2C(=O)N(Cc3ccccn3)C3(CCN(Cc4cccc5ccccc45)CC3)C2=O)c1` [Example 241]: the IC50 was determined as 424 nM. `COCCN1C(=O)N(Cc2cccc(OC)c2)C(=O)C12CCN(Cc1cccc3cccnc13)CC2` [Example 242]: the IC50 was found to be 424 nM. Take `COCCN1C(=O)N(Cc2cccc(-c3ccccc3)c2)C(=O)C12CCN(Cc1ccccc1)CC2` [Example 243]: the IC50 came out at 431 nM. Consider `COCCN1C(=O)N(Cc2cccc(OC)c2)C(=O)C12CCN(Cc1cc(OC)c3c(c1)OCO3)CC2` [Example 244], for which the IC50 is 432 nM.

Take `COCCN1C(=O)N(Cc2cccc(OC)c2)C(=O)C12CCN(Cc1nn(-c3ccccc3)nc1C)CC2` [Example 245]: the IC50 is 432 nM. In the case of `COCCN1C(=O)N(CCCC2CCCCC2)C(=O)C12CCN(Cc1ccccc1)CC2` [Example 246], the IC50 came to 435 nM. The figure for `O=C1N(C/C=C/c2ccccc2)C(=O)C2(CCN(Cc3cccc4ccccc34)CC2)N1Cc1cccc2cccnc12` [Example 247] is 436 nM; for `COCCN1C(=O)N(CCCc2ccccc2)C(=O)C12CCN(Cc1cccc(C)c1)CC2` [Example 248] it is 438 nM. As to `COCCCN1C(=O)N(Cc2cccc(OC)c2)C(=O)C12CCN(Cc1cc(OC)cc(OC)c1)CC2` [Example 249], the IC50 is 441 nM. Then `COCCN1C(=O)N(Cc2ccc3ccccc3c2)C(=O)C12CCN(Cc1ccc3ccccc3c1)CC2` [Example 250], with 442 nM.

As for `O=C1N(C/C=C/c2ccccc2)C(=O)C2(CCN(Cc3cccc4ccccc34)CC2)N1CCn1cccc1` [Example 251], the IC50 worked out at 447 nM. For `CCN1C(=O)N(CCCc2ccccc2)C(=O)C12CCN(Cc1cccc(C)c1)CC2` [Example 252], the IC50 came out at 448 nM. Regarding `COCCN1C(=O)N(Cc2cc(F)cc(F)c2)C(=O)C12CCN(Cc1cc(OC)cc(OC)c1)CC2` [Example 253], the IC50 came out at 450 nM. The figure for `COCCN1C(=O)N(Cc2cccc(OC)c2)C(=O)C12CCN(Cc1cccc(-c3ccco3)c1)CC2` [Example 254] is 451 nM; for `COCCN1C(=O)N(Cc2cccc(OC)c2)C(=O)C12CCN(Cc1cc(OC)ccc1F)CC2` [Example 255] it is 452 nM. `COCCN1C(=O)N(Cc2cccc(-n3cccc3)c2)C(=O)C12CCN(Cc1ccccc1)CC2` [Example 256]: the IC50 stood at 469 nM. Turning to `COCCN1C(=O)N(Cc2cccc(OC)c2)C(=O)C12CCN(Cc1ccc3c(c1)Cc1ccccc1-3)CC2` [Example 257], the IC50 is 479 nM. For the compound `COCCN1C(=O)N(Cc2cccc(OC)c2)C(=O)C12CCN(Cc1cccc(-c3ccoc3)c1)CC2` [Example 258], the IC50 turned out to be 481 nM. As to `COCCN1C(=O)N(Cc2cccc(OC)c2)C(=O)C12CCN(Cc1cccc(-c3cccc(OC)c3)c1)CC2` [Example 259], the IC50 was 484 nM.

As for `CCN1C(=O)N(CCCOc2ccccc2)C(=O)C12CCN(Cc1cccc3ccccc13)CC2` [Example 260], the IC50 was 486 nM. Turning to `C#CCOc1ccc(CN2CCC3(CC2)C(=O)N(Cc2cccc(OC)c2)C(=O)N3CCOC)cc1OC` [Example 261], the IC50 was determined as 490 nM. In the case of `CCOc1ccccc1CN1CCC2(CC1)C(=O)N(Cc1cccc(OC)c1)C(=O)N2CCOC` [Example 262], the IC50 is 495 nM. Consider `COCCN1C(=O)N(Cc2ccc3ccccc3c2)C(=O)C12CCN(Cc1ccccc1)CC2` [Example 263], for which the IC50 stood at 498 nM. On to `C=Cc1cccc(CN2CCC3(CC2)C(=O)N(Cc2cccc(OC)c2)C(=O)N3CCOC)c1` [Example 264], for which the IC50 stood at 500 nM.

On to `COc1cccc(CN2C(=O)N(CC=C(C)C)C3(CCN(Cc4cccc5ccccc45)CC3)C2=O)c1` [Example 265], for which the IC50 stood at 501 nM. Take `CCN1C(=O)N(Cc2cccc(OC)c2)C(=O)C12CCN(Cc1cccc(C)c1)CC2` [Example 266]: the IC50 was determined as 510 nM. For `COCCN1C(=O)N(Cc2cccc(OC)c2)C(=O)C12CCN(Cc1cccc3cc[nH]c13)CC2` [Example 267], the IC50 is 510 nM. For `COCCN1C(=O)N(Cc2cccc(OC)c2)C(=O)C12CCN(Cc1c(F)cccc1OC)CC2` [Example 268], the IC50 turned out to be 511 nM.

As for `COCCN1C(=O)N(Cc2cccc(OC)c2)C(=O)C12CCN(Cc1cc(OC)ccc1OC)CC2` [Example 269], the IC50 amounted to 513 nM. `COCCN1C(=O)N(Cc2cccc(OC)c2)C(=O)C12CCN(Cc1cc(OC)c(Cl)cc1F)CC2` [Example 270]: the IC50 was found to be 518 nM. Then `CCOc1ccc(OCC)c(CN2CCC3(CC2)C(=O)N(Cc2cccc(OC)c2)C(=O)N3CCOC)c1` [Example 271], with 522 nM. For `CCN1C(=O)N(Cc2ccc3ccccc3c2)C(=O)C12CCN(Cc1cccc(C)c1)CC2` [Example 272], the IC50 amounted to 525 nM. Consider `CCCOc1ccc(CN2CCC3(CC2)C(=O)N(Cc2cccc(OC)c2)C(=O)N3CCOC)cc1OC` [Example 273], for which the IC50 was 528 nM. In the case of `COCCN1C(=O)N(Cc2cccc(OC)c2)C(=O)C12CCN(Cc1cccc(N(C)C)c1)CC2` [Example 274], the IC50 is 528 nM. Turning to `COCCN1C(=O)N(Cc2cccc(OC)c2)C(=O)C12CCN(Cc1c(Cl)ccc(C)c1F)CC2` [Example 275], the IC50 amounted to 532 nM. For the compound `COCCN1C(=O)N(Cc2cccc(OC)c2)C(=O)C12CCN(Cc1cccc(N(C)c3ccccc3)c1)CC2` [Example 276], the IC50 was 538 nM. For the compound `CCN1C(=O)N(CCCOc2ccccc2)C(=O)C12CCN(Cc1cccc(OC)c1)CC2` [Example 277], the IC50 stood at 540 nM. The figure for `COCCN1C(=O)N(Cc2cccc(OC)c2)C(=O)C12CCN(Cc1ccc(F)c(OC)c1)CC2` [Example 278] is 542 nM. With `CCN1C(=O)N(Cc2cccc(OC)c2)C(=O)C12CCN(Cc1cccc(OC)c1)CC2` [Example 279], the IC50 amounted to 546 nM. For `CCN1C(=O)N(CCCc2ccccc2)C(=O)C12CCN(Cc1cccc3ccccc13)CC2` [Example 280], the IC50 amounted to 546 nM.
